In PubChem BioAssay (NCI):
Where “and” joins values, the source holds several entries; their conditions need not be identical. Equal entries are not always repeated.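 Method: 48-hour compound exposure of cells in 96-well plates, five concentrations, linear interpolation of endpoints. Here, GI50 denotes the concentration required for 50% inhibition of growth. TGI denotes the concentration required for complete inhibition of growth.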

Legend:
Assay in all cases: NCI-60 cell line screen, 48 h
A498 renal = system: A498 renal
A549 NSCLC = system: A549 NSCLC
ACHN renal = system: ACHN renal
BT-549 breast = system: BT-549 breast
CAKI-1 renal = system: CAKI-1 renal
CCRF-CEM leukemia = system: CCRF-CEM leukemia
COLO 205 colon = system: COLO 205 colon
DU-145 prostate = system: DU-145 prostate
EKVX NSCLC = system: EKVX NSCLC
HCC-2998 colon = system: HCC-2998 colon
HCT-15 colon = system: HCT-15 colon
HL-60(TB) leukemia = system: HL-60(TB) leukemia
HOP-18 NSCLC = system: HOP-18 NSCLC
HOP-62 NSCLC = system: HOP-62 NSCLC
HOP-92 NSCLC = system: HOP-92 NSCLC
HS 578T breast = system: HS 578T breast
IGROV1 ovarian = system: IGROV1 ovarian
MALME-3M melanoma = system: MALME-3M melanoma
MDA-MB-231 breast = system: MDA-MB-231 breast
MDA-MB-435 = system: MDA-MB-435
MDA-N = system: MDA-N
MOLT-4 leukemia = system: MOLT-4 leukemia
NCI-H226 lung = system: NCI-H226 lung
NCI-H460 lung = system: NCI-H460 lung
NCI-H522 lung = system: NCI-H522 lung
OVCAR-5 ovarian = system: OVCAR-5 ovarian
RXF 393 renal = system: RXF 393 renal
RXF-631 renal = system: RXF-631 renal
SF-295 CNS = system: SF-295 CNS
SF-539 CNS = system: SF-539 CNS
SK-MEL-2 melanoma = system: SK-MEL-2 melanoma
SK-MEL-28 melanoma = system: SK-MEL-28 melanoma
SK-OV-3 ovarian = system: SK-OV-3 ovarian
SNB-19 CNS = system: SNB-19 CNS
SNB-75 CNS = system: SNB-75 CNS
SNB-78 CNS = system: SNB-78 CNS
SR leukemia = system: SR leukemia
T-47D breast = system: T-47D breast
U251 CNS = system: U251 CNS
UACC-257 melanoma = system: UACC-257 melanoma
UACC-62 melanoma = system: UACC-62 melanoma
786-0 renal = system: 786-0 renal
DLD-1 colon = system: DLD-1 colon
DMS 114 small cell lung = system: DMS 114 small cell lung
DMS 273 small cell lung = system: DMS 273 small cell lung
HCT-116 colon = system: HCT-116 colon
HT29 colon = system: HT29 colon
K-562 leukemia = system: K-562 leukemia
KM12 colon = system: KM12 colon
KM20L2 colon = system: KM20L2 colon
LOX IMVI melanoma = system: LOX IMVI melanoma
LXFL 529 NSCLC = system: LXFL 529 NSCLC
M14 melanoma = system: M14 melanoma
M19-MEL melanoma = system: M19-MEL melanoma
NCI-H23 lung = system: NCI-H23 lung
OVCAR-3 ovarian = system: OVCAR-3 ovarian
OVCAR-4 ovarian = system: OVCAR-4 ovarian
OVCAR-8 ovarian = system: OVCAR-8 ovarian
RPMI-8226 leukemia = system: RPMI-8226 leukemia
SF-268 CNS = system: SF-268 CNS
SK-MEL-5 melanoma = system: SK-MEL-5 melanoma
SN12C renal = system: SN12C renal
SW-620 colon = system: SW-620 colon
TK-10 renal = system: TK-10 renal
UO-31 renal = system: UO-31 renal
XF 498 CNS = system: XF 498 CNS

Structure (SMILES): Cc1cc2c(c3oc(C(O)(CO)C4CO4)cc(=O)c13)C(=O)c1c(O)cccc1C2=O (configuration not stated)
- GI50 (A498 renal): 3.75 nM
- TGI (A498 renal): 4.03 nM
- TGI (A549 NSCLC): 13.9 nM and 21.3 nM and 60.6 nM
- TGI (ACHN renal): 5.24 nM
- TGI (BT-549 breast): 0.438 nM
- TGI (CAKI-1 renal): 3.6 nM
- TGI (CCRF-CEM leukemia): 0.111 nM
- GI50 (COLO 205 colon): 0.1 nM
- TGI (COLO 205 colon): 1.15 nM
- TGI (DU-145 prostate): 2.49 nM and 1.08 nM
- TGI (EKVX NSCLC): 17.1 nM and 37.8 nM
- GI50 (HCC-2998 colon): 0.169 nM
- TGI (HCC-2998 colon): 7.27 nM and 3.65 nM and 11.2 nM
- TGI (HCT-15 colon): 1.52 nM
- TGI (HL-60(TB) leukemia): 3.97 nM
- TGI (HOP-18 NSCLC): 35.8 nM
- TGI (HOP-62 NSCLC): 9.89 nM and 3.53 nM
- TGI (HOP-92 NSCLC): 0.983 nM
- GI50 (HS 578T breast): 0.702 nM
- TGI (HS 578T breast): 7.8 nM
- TGI (IGROV1 ovarian): 1.9 nM and 2.94 nM
- TGI (MALME-3M melanoma): 5.27 nM and 2.31 nM and 15.2 nM
- TGI (MDA-MB-231 breast): 8.43 nM and 4.11 nM
- TGI (MDA-MB-435): 5.2 nM
- GI50 (MDA-N): 3.75 nM
- TGI (MDA-N): 4.43 nM and 5.15 nM
- GI50 (MOLT-4 leukemia): > 37500 nM
- TGI (MOLT-4 leukemia): > 37500 nM
- TGI (NCI-H226 lung): 2.09 nM
- TGI (NCI-H460 lung): 0.12 nM
- TGI (NCI-H522 lung): 3.23 nM
- TGI (OVCAR-5 ovarian): 7.91 nM and 3.28 nM and 4.1 nM
- TGI (RXF 393 renal): 2.54 nM
- TGI (RXF-631 renal): > 100000 nM
- TGI (SF-295 CNS): 0.94 nM
- TGI (SF-539 CNS): 0.212 nM
- TGI (SK-MEL-2 melanoma): 4.15 nM
- GI50 (SK-MEL-28 melanoma): 3.75 nM
- TGI (SK-MEL-28 melanoma): 9.5 nM and 8.24 nM and 38.2 nM
- TGI (SK-OV-3 ovarian): 6.71 nM and 1.73 nM
- GI50 (SNB-19 CNS): 0.231 nM
- TGI (SNB-19 CNS): 4.42 nM and 4.94 nM
- TGI (SNB-75 CNS): 3.95 nM and 0.596 nM
- TGI (SNB-78 CNS): > 100000 nM
- TGI (SR leukemia): 2.27 nM
- GI50 (T-47D breast): 3.75 nM
- TGI (T-47D breast): 6.83 nM and 2.32 nM and 14.6 nM
- TGI (U251 CNS): 4.11 nM
- TGI (UACC-257 melanoma): 40.4 nM
- TGI (UACC-62 melanoma): 2.93 nM

Structure (SMILES): C=C(CN(CC(=C)C(=O)c1ccccc1)C(C)(C)C)C(=O)c1ccccc1
- TGI (786-0 renal): 24500 nM
- TGI (A498 renal): 32900 nM
- TGI (A549 NSCLC): > 77700 nM
- TGI (ACHN renal): 21300 nM
- TGI (CAKI-1 renal): 14500 nM
- TGI (CCRF-CEM leukemia): > 21000 nM
- TGI (COLO 205 colon): 7520 nM
- TGI (DLD-1 colon): 10200 nM
- TGI (DMS 114 small cell lung): 33500 nM
- TGI (DMS 273 small cell lung): 32400 nM
- TGI (DU-145 prostate): 40300 nM
- TGI (EKVX NSCLC): 44400 nM
- TGI (HCC-2998 colon): 33300 nM
- TGI (HCT-116 colon): 26800 nM
- TGI (HL-60(TB) leukemia): 9700 nM
- TGI (HOP-18 NSCLC): 14300 nM
- TGI (HOP-92 NSCLC): 15000 nM
- TGI (HT29 colon): 41900 nM
- TGI (IGROV1 ovarian): 40300 nM
- TGI (K-562 leukemia): 21100 nM
- TGI (KM12 colon): 17600 nM
- TGI (KM20L2 colon): 37500 nM
- TGI (LOX IMVI melanoma): 30800 nM
- TGI (LXFL 529 NSCLC): 10100 nM
- TGI (M14 melanoma): 23000 nM
- TGI (M19-MEL melanoma): 30000 nM
- TGI (MALME-3M melanoma): 29700 nM
- TGI (MOLT-4 leukemia): 10200 nM
- TGI (NCI-H226 lung): 48400 nM
- TGI (NCI-H23 lung): 32700 nM
- TGI (NCI-H460 lung): 43200 nM
- TGI (NCI-H522 lung): 29400 nM
- TGI (OVCAR-3 ovarian): 37500 nM
- TGI (OVCAR-4 ovarian): 29300 nM
- TGI (OVCAR-5 ovarian): 34300 nM
- TGI (OVCAR-8 ovarian): 67900 nM
- TGI (RPMI-8226 leukemia): 68400 nM
- TGI (RXF 393 renal): 18700 nM
- TGI (SF-268 CNS): 17000 nM
- TGI (SF-295 CNS): > 54200 nM
- TGI (SF-539 CNS): 31500 nM
- TGI (SK-MEL-2 melanoma): 35300 nM
- TGI (SK-MEL-28 melanoma): 36800 nM
- TGI (SK-MEL-5 melanoma): 31100 nM
- TGI (SK-OV-3 ovarian): 34400 nM
- TGI (SN12C renal): 32500 nM
- TGI (SNB-19 CNS): > 59900 nM
- TGI (SNB-75 CNS): 17600 nM
- TGI (SNB-78 CNS): 53700 nM
- TGI (SR leukemia): > 21000 nM
- TGI (SW-620 colon): 9910 nM
- TGI (TK-10 renal): 27000 nM
- TGI (U251 CNS): 39400 nM
- TGI (UACC-257 melanoma): 32600 nM
- TGI (UACC-62 melanoma): 32400 nM
- TGI (UO-31 renal): 24300 nM
- TGI (XF 498 CNS): 16000 nM
